Source: patent publication US20050197364A1, “Amide compounds as ion channel ligands and uses thereof” (priority 2003, published 2005)

Tested on: VR1 receptor
Assay: High throughput calcium imaging assay (Fura2, Flex Station) of VR1 antagonists, pH 5.1 stimulus
Assay type: cell-based
Conditions: 1 uM compound; inhibition of calcium ion influx induced by capsaicin stimulation
Method: Therefore the functional activity of compounds at the VR1 receptor may be determined by measuring changes in intracellular calcium levels in 293 cells expressing capsaicin-insensitive VR1 receptor variants. A dual wavelength ratiometric dye, Fura2, was used as an indicator of relative levels of calcium ions in a 96 well format using a bench top scanning fluorometer with integrated fluidics and temperature control (Flex Station, Molecular Devices).
293 cells were grown on PDL coated 96-well black-walled plates, in the presence of a DMEM medium containing 5% Penstrep, 5% Glutamax, 200 ug/mL Hygromycin, 5 μg/mL Blasticide and 10% heat inactivated FBS. Prior to assay, the cells were loaded with 5 μg/mL Fura2 in normal saline solution at 37° C. for 40 minutes. Cells were then washed with normal saline to remove the dye.
The assay consists of two stages; a pre-treatment phase followed by a treatment phase.
50 μl of a compound solution was added to the cells (Pre-treatment). Immediately following, 50 μl of the test compound in a saline solution at pH 5.1 was added. Fura2 was excited at 340 and 380 nM to indicate relative calcium concentration. Changes in wavelength measurements were made throughout the course of the experiment in 4 second intervals over a period of 3 minutes. Responses were measured as peak fluorescence ratio after test compound addition minus baseline fluorescence ratio prior to pre-treatment and were calculated using SoftMaxPro softwareData were expressed as percentage inhibition calculated using Excel as follows: [formula]

| SMILES | % Inhibition @ 1 uM |
| --- | --- |
| N#Cc1cccc(NC(=O)c2ccc(-c3ncccc3Cl)cn2)c1 [Compound 299] | + + + + (“+ + + +” compound exhibited 75% or greater inhibition of calcium ion influx induced by capsaicin stimulation.) |
| CC(C)c1ccc(NC(=O)c2ccc(-c3ncccc3Cl)cc2)cc1 [Compound 25] | + + + + (compound exhibited 75% or greater inhibition of calcium ion influx induced by capsaicin stimulation) |
| Cc1cc(NC(=O)c2ccc(-c3ncccc3Cl)cn2)nc(C)n1 [Compound 326] | + (“+” compound exhibited 0-25% inhibition of calcium ion influx induced by capsaicin stimulation.) |
| O=C(Nc1ccncn1)c1ccc(-c2ncccc2Cl)cn1 [Compound 319] | + + + + (“+ + + +” compound exhibited 75% or greater inhibition of calcium ion influx induced by capsaicin stimulation.) |
| O=C(O)c1cccc(NC(=O)c2ccc(-c3ncccc3Cl)c(F)c2)c1 [Compound 165] | + (compound exhibited 0-25% inhibition of calcium ion influx induced by capsaicin stimulation) |
| O=C(Nc1cccc(OC(F)(F)F)c1)c1ccc(-c2ncccc2Cl)cc1 [Compound 277] | + (“+” compound exhibited 0-25% inhibition of calcium ion influx induced by capsaicin stimulation.) |
| O=C(Nc1ccc2ccccc2c1)c1ccc(-c2ncccc2Cl)cc1F [Compound 109] | + + (compound exhibited 25-50% inhibition of calcium ion influx induced by capsaicin stimulation) |
| CCC1c2ccccc2-c2cc(NC(=O)c3ccc(-c4ncccc4Cl)cc3)ccc21 (centres unmarked) [Compound 55] | + + (compound exhibited 25-50% inhibition of calcium ion influx induced by capsaicin stimulation) |
| Cc1cc(C)nc(NC(=O)c2ccc(-c3ncccc3Cl)cc2)c1 [Compound 37] | + (compound exhibited 0-25% inhibition of calcium ion influx induced by capsaicin stimulation) |
| O=C(Nc1ccc(C(F)(F)F)cn1)c1ccc(-c2ncccc2Cl)cc1 [Compound 50] | + + (compound exhibited 25-50% inhibition of calcium ion influx induced by capsaicin stimulation) |
| O=C(Nc1cccc(Br)c1)c1ccc(-c2ncccc2Cl)cc1F [Compound 83] | + + + + (compound exhibited 75% or greater inhibition of calcium ion influx induced by capsaicin stimulation) |
| CCOc1cccc(NC(=O)c2ccc(-c3ncccc3Cl)cn2)c1 [Compound 347] | + + + + (“+ + + +” compound exhibited 75% or greater inhibition of calcium ion influx induced by capsaicin stimulation.) |
| Cc1ccnc(NC(=O)c2ccc(-c3ncccc3Cl)cn2)c1 [Compound 318] | + (“+” compound exhibited 0-25% inhibition of calcium ion influx induced by capsaicin stimulation.) |
| COc1cc(C(=O)Nc2ccccc2)ccc1-c1ncccc1Cl [Compound 189] | + (compound exhibited 0-25% inhibition of calcium ion influx induced by capsaicin stimulation) |
| CN1CCCc2ccc(NC(=O)c3ccc(-c4ncccc4Cl)cc3)cc21 [Compound 287] | + (“+” compound exhibited 0-25% inhibition of calcium ion influx induced by capsaicin stimulation.) |
| COc1cc(C(=O)Nc2ccc(C#N)c(Cl)c2)ccc1-c1ncccc1Cl [Compound 248] | + + + + (“+ + + +” compound exhibited 75% or greater inhibition of calcium ion influx induced by capsaicin stimulation.) |
| O=C(Nc1cccc(Cl)c1Cl)c1ccc(-c2ncccc2Cl)c(F)c1 [Compound 122] | + + + + (compound exhibited 75% or greater inhibition of calcium ion influx induced by capsaicin stimulation) |
| COc1cc(C(=O)Nc2cc(C)cc(C)n2)ccc1-c1ncccc1Cl [Compound 217] | + (“+” compound exhibited 0-25% inhibition of calcium ion influx induced by capsaicin stimulation.) |
| COc1ccc(NC(=O)c2ccc(-c3ncccc3Cl)c(OC)c2)cc1Cl [Compound 212] | + + + (“+ + +” compound exhibited 50-75% inhibition of calcium ion influx induced by capsaicin stimulation.) |
| COc1cc(C(=O)Nc2ccc(Cl)cc2S(=O)(=O)O)ccc1-c1ncccc1Cl [Compound 261] | + (“+” compound exhibited 0-25% inhibition of calcium ion influx induced by capsaicin stimulation.) |
| CCn1c2ccccc2c2cc(NC(=O)c3ccc(-c4ncccc4Cl)c(OC)c3)ccc21 [Compound 234] | + (“+” compound exhibited 0-25% inhibition of calcium ion influx induced by capsaicin stimulation.) |
| O=C(Nc1ccc(N2CCNCC2)c(Cl)c1)c1ccc(-c2ncccc2Cl)c(F)c1 [Compound 183] | + + + + (compound exhibited 75% or greater inhibition of calcium ion influx induced by capsaicin stimulation) |
| O=C(Nc1cccc(Cl)c1)c1ccc(-c2ncccc2Cl)cc1 [Compound 12] | + (compound exhibited 0-25% inhibition of calcium ion influx induced by capsaicin stimulation) |

| SMILES | % Inhibition @ 1 uM |
| --- | --- |
| COc1ccc(NC(=O)c2ccc(-c3ncccc3Cl)cc2)cc1O [Compound 271] | + (“+” compound exhibited 0-25% inhibition of calcium ion influx induced by capsaicin stimulation.) |
| O=C(Nc1ccc2c(c1)Cc1ccccc1-2)c1ccc(-c2ncccc2Cl)cc1 [Compound 36] | + + (compound exhibited 25-50% inhibition of calcium ion influx induced by capsaicin stimulation) |
| COc1cc(C(=O)Nc2cccc(C(F)(F)F)c2)ccc1-c1ncccc1Cl [Compound 250] | + + (“+ +” compound exhibited 25-50% inhibition of calcium ion influx induced by capsaicin stimulation.) |
| CCCc1ccccc1NC(=O)c1ccc(-c2ncccc2Cl)c(OC)c1 [Compound 195] | + + (compound exhibited 25-50% inhibition of calcium ion influx induced by capsaicin stimulation) |
| O=C(Nc1ccc(Cl)nc1)c1ccc(-c2ncccc2Cl)cc1 [Compound 31] | + (compound exhibited 0-25% inhibition of calcium ion influx induced by capsaicin stimulation) |
| COc1cc(C(=O)Nc2ccc(Cl)c(C(F)(F)F)c2)ccc1-c1ncccc1Cl [Compound 214] | + (“+” compound exhibited 0-25% inhibition of calcium ion influx induced by capsaicin stimulation.) |
| O=C(Nc1ccc(F)c(F)c1)c1ccc(-c2ncccc2Cl)cc1 [Compound 279] | + (“+” compound exhibited 0-25% inhibition of calcium ion influx induced by capsaicin stimulation.) |
| CC(C)c1cccc(NC(=O)c2ccc(-c3ncccc3Cl)cc2F)c1 [Compound 69] | + (compound exhibited 0-25% inhibition of calcium ion influx induced by capsaicin stimulation) |
| COc1cc(C(=O)Nc2ccc3cn[nH]c3c2)ccc1-c1ncccc1Cl [Compound 247] | + + (“+ +” compound exhibited 25-50% inhibition of calcium ion influx induced by capsaicin stimulation.) |
| COc1ccc(NC(=O)c2ccc(-c3ncccc3Cl)cn2)cc1O [Compound 338] | + + (“+ +” compound exhibited 25-50% inhibition of calcium ion influx induced by capsaicin stimulation.) |
| O=C(Nc1ccc2ncccc2c1)c1ccc(-c2ncccc2Cl)cc1F [Compound 107] | + + (compound exhibited 25-50% inhibition of calcium ion influx induced by capsaicin stimulation) |
| O=C(Nc1ccc(F)c(F)c1)c1ccc(-c2ncccc2Cl)cn1 [Compound 346] | + + + + (“+ + + +” compound exhibited 75% or greater inhibition of calcium ion influx induced by capsaicin stimulation.) |
| COc1cc(C(=O)Nc2cccc(Cl)c2)ccc1-c1ncccc1Cl [Compound 193] | + (compound exhibited 0-25% inhibition of calcium ion influx induced by capsaicin stimulation) |
| CCCCc1ccc(NC(=O)c2ccc(-c3ncccc3Cl)cc2)cc1 [Compound 26] | + + (compound exhibited 25-50% inhibition of calcium ion influx induced by capsaicin stimulation) |
| O=C(Nc1cc[nH]n1)c1ccc(-c2ncccc2Cl)cc1 [Compound 9] | + (compound exhibited 0-25% inhibition of calcium ion influx induced by capsaicin stimulation) |
| COc1ccc(NC(=O)c2ccc(-c3ncccc3Cl)cc2F)cc1Cl [Compound 79] | + + (compound exhibited 25-50% inhibition of calcium ion influx induced by capsaicin stimulation) |
| O=C(Nc1ccc(Cl)nc1)c1ccc(-c2ncccc2Cl)c(F)c1 [Compound 152] | + (compound exhibited 0-25% inhibition of calcium ion influx induced by capsaicin stimulation) |
| CCN(CC)c1ccc(NC(=O)c2ccc(-c3ncccc3Cl)cc2)cc1 [Compound 44] | + + + + (compound exhibited 75% or greater inhibition of calcium ion influx induced by capsaicin stimulation) |
| O=C(Nc1ccc(OC(F)(F)F)cc1)c1ccc(-c2ncccc2Cl)cc1 [Compound 276] | + (“+” compound exhibited 0-25% inhibition of calcium ion influx induced by capsaicin stimulation.) |
| COc1cc(C(=O)Nc2cccnc2)ccc1-c1ncccc1Cl [Compound 219] | + (“+” compound exhibited 0-25% inhibition of calcium ion influx induced by capsaicin stimulation.) |
| O=C(Nc1ccccc1Cl)c1ccc(-c2ncccc2Cl)cn1 [Compound 297] | + + + + (“+ + + +” compound exhibited 75% or greater inhibition of calcium ion influx induced by capsaicin stimulation.) |
| O=C(Nc1ccnc(Cl)c1)c1ccc(-c2ncccc2Cl)cn1 [Compound 325] | + (“+” compound exhibited 0-25% inhibition of calcium ion influx induced by capsaicin stimulation.) |
| COc1cc(C(=O)Nc2nccs2)ccc1-c1ncccc1Cl [Compound 235] | + (“+” compound exhibited 0-25% inhibition of calcium ion influx induced by capsaicin stimulation.) |

Same assay, conditions: 1 uM compound; inhibition of calcium ion influx induced by capsaicin stimulation; 1 µM

| SMILES | % Inhibition @ 1 uM |
| --- | --- |
| O=C(Nc1ccc2ccccc2c1)c1ccc(-c2ncccc2Cl)cc1 [Compound 57] | + + + + (compound exhibited 75% or greater inhibition of calcium ion influx induced by capsaicin stimulation) |
